This note sets out measurements from patent publication US20160090383A1, “ANTIBACTERIAL PHTHALIDE DERIVATIVES” (priority 2013, published 2016).

The term MIC denotes the lowest concentration that inhibits growth of the organism.

Common to all, as to assay: Bacterial growth minimal inhibitory concentration (microdilution, CLSI M7-A7)
Holding throughout (format): cell-based
(Dilution methods test growth across graded concentrations, often in twofold steps.)

For assay [1], the system named is Streptococcus pneumonia ATTC49619. The settings on record: quinolone-sensitive strain, cation-adjusted Mueller-Hinton Broth; for MIC: Streptococcus pneumoniae, ATTC49619, read-out: MIC for S. pneumonia ATTC49619. On the procedure: (§1) Minimal Inhibitory Concentrations (MICs; […]) were determined in cation-adjusted Mueller-Hinton Broth by a microdilution method following the description given in “Methods for Dilution Antimicrobial Susceptibility Tests for Bacteria that Grow Aerobically”, Approved standard, 7th ed., Clinical and Laboratory Standards Institute (CLSI) Document M7-A7, Wayne, Pa., USA, 2006.

Assay [2] deals with Enterococcus faecium A949. Conditions: multiply-resistant strain (quinolone-resistant and vancomycin-resistant), cation-adjusted Mueller-Hinton Broth; for MIC: Enterococcus faecium, A949, read-out: MIC for E. faecium A949. How it is done:
as §1

For assay [3], the system named is Staphylococcus aureus A798. The settings on record: multiply-resistant strain (quinolone-resistant and methicillin-resistant), cation-adjusted Mueller-Hinton Broth; for MIC: Staphylococcus aureus, A798, read-out: MIC for S. aureus A798. On the procedure: as §1
For assay [4], the system named is Moraxella catarrhalis A894. Conditions: quinolone-sensitive strain, cation-adjusted Mueller-Hinton Broth; for MIC: Moraxella catarrhalis, A894. How it is done:
as §1

The test system of assay [5] is Staphylococcus aureus ATCC29213. The settings on record: methicillin-sensitive and quinolone-sensitive strain, cation-adjusted Mueller-Hinton Broth; for MIC: Staphylococcus aureus, ATCC29213, read-out: MIC for S. aureus ATCC29213. On the procedure: as §1

≈ marks a conversion by molar mass, not a printed value. Some results are limits rather than exact numbers.

Regarding `O=C(Cn1c(=O)ccc2ccc(F)cc21)NCCC1OC(=O)c2cc(-c3cc(F)ccc3F)ccc21` (racemic) [Example 19, rac-N-{2-[5-(2,5-Difluoro-phenyl)-3-oxo-1,3-dihydro-isobenzofuran-1-yl]-ethyl}-2-(7-fluoro-2-oxo-2H-quinolin-1-yl)-acetamide], the MIC in assay [1] is 0.5 µg/mL (≈ 1.02 µM); in assay [2], 0.25 µg/mL (≈ 0.508 µM); in assay [3] it was 0.125 µg/mL (≈ 0.254 µM); in assay [4] it was 0.25 µg/mL (≈ 0.508 µM); in assay [5] it was 0.063 µg/mL (≈ 0.128 µM).

Regarding `O=C1OC(C(=O)NCCCn2c(=O)ccc3ccc(F)cc32)c2ccc(C3=CCCCC3)cc21` (racemic) [Example 21, rac-5-Cyclohex-1-enyl-3-oxo-1,3-dihydro-isobenzofuran-1-carboxylic acid [3-(7-fluoro-2-oxo-2H-quinolin-1-yl)-propyl]-amide], the MIC in assay [1] is 4 µg/mL (≈ 8.69 µM); in assay [2], 4 µg/mL (≈ 8.69 µM); in assay [3] it was 0.125 µg/mL (≈ 0.271 µM); in assay [4], 2 µg/mL (≈ 4.34 µM); in assay [5], 0.125 µg/mL (≈ 0.271 µM).

As for `O=C(Cn1c(=O)ccc2ccc(F)cc21)NCCC1OC(=O)c2cc(C3=CCCCC3)ccc21` (racemic) [Example 22, rac-N-[2-(5-Cyclohex-1-enyl-3-oxo-1,3-dihydro-isobenzofuran-1-yl)-ethyl]-2-(7-fluoro-2-oxo-2H-quinolin-1-yl)-acetamide], the MIC is 1 µg/mL (≈ 2.17 µM) in assay [1]; 0.5 µg/mL (≈ 1.09 µM) in assay [2]; 0.125 µg/mL (≈ 0.271 µM) in assay [3]; 1 µg/mL (≈ 2.17 µM) in assay [4]; 0.031 µg/mL (≈ 0.0673 µM) in assay [5].

As for `O=C(Cn1c(=O)ccc2ccc(F)cc21)NCCC1OC(=O)c2cc(C3=CCCC3)ccc21` (racemic) [Example 23, rac-N-[2-(5-Cyclopent-1-enyl-3-oxo-1,3-dihydro-isobenzofuran-1-yl)-ethyl]-2-(7-fluoro-2-oxo-2H-quinolin-1-yl)-acetamide], the MIC in assay [1] is 4 µg/mL (≈ 8.96 µM); in assay [2], 0.5 µg/mL (≈ 1.12 µM); in assay [3] it was 1 µg/mL (≈ 2.24 µM); in assay [4], > 8 µg/mL; in assay [5], 0.25 µg/mL (≈ 0.56 µM).

Take `O=C(Cn1c(=O)ccc2ccc(F)cc21)NCCC1OC(=O)c2cc(-c3cc(F)cc(F)c3)ccc21` (racemic) [Example 24, rac-N-{2-[5-(3,5-Difluoro-phenyl)-3-oxo-1,3-dihydro-isobenzofuran-1-yl]-ethyl}-2-(7-fluoro-2-oxo-2H-quinolin-1-yl)-acetamide]: the MIC in assay [1] is 2 µg/mL (≈ 4.06 µM); in assay [2], 0.5 µg/mL (≈ 1.02 µM); in assay [3] it was 0.5 µg/mL (≈ 1.02 µM); in assay [4] it was 0.5 µg/mL (≈ 1.02 µM); in assay [5], 0.125 µg/mL (≈ 0.254 µM).

On to `CC(C)=Cc1ccc2c(c1)C(=O)OC2CCNC(=O)Cn1c(=O)ccc2ccc(F)cc21` (racemic) [Example 25, rac-2-(7-Fluoro-2-oxo-2H-quinolin-1-yl)-N-{2-[5-(2-methyl-propenyl)-3-oxo-1,3-dihydro-isobenzofuran-1-yl]-ethyl}-acetamide], for which the MIC in assay [1] amounted to 1 µg/mL (≈ 2.3 µM); in assay [2] it was 0.5 µg/mL (≈ 1.15 µM); in assay [3], 0.25 µg/mL (≈ 0.575 µM); in assay [4], 4 µg/mL (≈ 9.21 µM); in assay [5] it was 0.063 µg/mL (≈ 0.145 µM).

Consider “(S)-3-Oxo-5-phenyl-1,3-dihydro-isobenzofuran-1-carboxylic acid [2-((R)-9-fluoro-4-oxo-1,2-dihydro-4H-pyrrolo[3,2,1-ij]quinolin-1-ylamino)-ethyl]-amide and (S)-3-Oxo-5-phenyl-1,3-dihydro-isobenzofuran-1-carboxylic acid [2-((R)-9-fluoro-4-oxo-1,2-dihydro-4H-pyrrolo[3,2,1-ij]quinolin-1-ylamino)-ethyl]-amide [Example 14]”, for which the “MIC for S. pneumonia ATTC49619” value in assay [1] turned out to be 2 µg/mL. Besides, the “MIC for E. faecium A949” value in assay [2] turned out to be 0.5 µg/mL. In assay [3], the “MIC for S. aureus A798” value is 0.125 µg/mL. The “MIC for M. catarrhalis A894” value in assay [4] was found to be 4 µg/mL. Also, the “MIC for S. aureus ATCC29213” value in assay [5] was 0.125 µg/mL.

For the molecule “(S)-9-Fluoro-1-[3-((R)-3-oxo-5-phenyl-1,3-dihydro-isobenzofuran-1-yl)-propylamino]-1,2-dihydro-pyrrolo[3,2,1-ij]quinolin-4-one and (S)-9-Fluoro-1-[3-((S)-3-oxo-5-phenyl-1,3-dihydro-isobenzofuran-1-yl)-propylamino]-1,2-dihydro-pyrrolo[3,2,1-ij]quinolin-4-one [Example 7]”, the “MIC for S. pneumonia ATTC49619” value in assay [1] was found to be 0.125 µg/mL. Further, in assay [2], the “MIC for E. faecium A949” value was found to be 0.125 µg/mL. The “MIC for S. aureus A798” value in assay [3] worked out at 0.125 µg/mL. Also, in assay [4], the “MIC for M. catarrhalis A894” value is 2 µg/mL. For the same molecule, the “MIC for S. aureus ATCC29213” value in assay [5] came out at 0.031 µg/mL.

As to “N—((R)-9-Fluoro-4-oxo-1,2-dihydro-4H-pyrrolo[3,2,1-ij]quinolin-1-ylmethyl)-2-((R)-3-oxo-5-phenyl-1,3-dihydro-isobenzofuran-1-yl)-acetamide and N—((R)-9-Fluoro-4-oxo-1,2-dihydro-4H-pyrrolo[3,2,1-ij]quinolin-1-ylmethyl)-2-((S)-3-oxo-5-phenyl-1,3-dihydro-isobenzofuran-1-yl)-acetamide [Example 1]”, in assay [1], the “MIC for S. pneumonia ATTC49619” value came out at 0.125 µg/mL. Also, the “MIC for E. faecium A949” value in assay [2] turned out to be 0.125 µg/mL. For the same molecule, the “MIC for S. aureus A798” value in assay [3] was “≦0.016 mg/L”. In addition, the “MIC for M. catarrhalis A894” value in assay [4] worked out at 0.25 µg/mL. The “MIC for S. aureus ATCC29213” value in assay [5] is “≦0.016 mg/L”.

On to “rac-5-(2,5-Difluoro-phenyl)-3-oxo-1,3-dihydro-isobenzofuran-1-carboxylic acid [3-(7-fluoro-2-oxo-2H-quinolin-1-yl)-propyl]-amide [Example 20]”, for which the “MIC for S. pneumonia ATTC49619” value in assay [1] was found to be 2 µg/mL. For the same molecule, the “MIC for E. faecium A949” value in assay [2] was found to be 1 µg/mL. The “MIC for S. aureus A798” value in assay [3] turned out to be 0.063 µg/mL. In addition, the “MIC for M. catarrhalis A894” value in assay [4] was found to be 0.25 µg/mL. In addition, in assay [5], the “MIC for S. aureus ATCC29213” value is 0.063 µg/mL.
